Laboratory results published in patent US9801901B2, “Alginate oligomers for use in overcoming multidrug resistance in bacteria” (priority 2009, dated 2017).
Values after ≈ are worked out from the molar mass of the structure shown. Where two headings read alike, the source gives them in different places. Marks after values point to notes of the source that are not given here.

Columns and labels:
[1] = tested on: Pseudomonas aeruginosa CFA 24-1, clinical mucoid strain (R80); test: MIC assay, CAMHB with alginate oligomer, no visible growth; format: cell-based; conditions: Pseudomonas aeruginosa, Table 1, R80, read-out: MIC
[2] = tested on: Pseudomonas aeruginosa MDR R22 from China (V1); test: as above; format: cell-based; conditions: Pseudomonas aeruginosa, Table 1, V1 MDR R22 PA, read-out: MIC
Text: The study described in Example 1 was repeated with the following strains of bacteria and antibiotics as detailed in Tables 4, 5 and 6.

[3] = tested on: Pseudomonas aeruginosa MDR 301 from Poland (V2); test: as above; format: cell-based; conditions: Pseudomonas aeruginosa, Table 1, V2 MDR 301 PA, read-out: MIC
[4] = tested on: Klebsiella pneumoniae KP05 506 from India (V3); test: as above; format: cell-based; conditions: for MIC: Klebsiella pneumoniae, Table 1, V3 KP05 506, read-out: MIC
V11 5702 (Wales) E. coli = test: as above; format: cell-based; conditions: Table 5, V11 MDR E.coli
V22 6056 Acinetobacter = test: as above; format: cell-based, Acinetobacter lwoffii; conditions: Table 5, V22 MDR Acin. lwoff
[5] = tested on: V23 1322 Burkholderia cepacia; test: as above; format: cell-based
[6] = tested on: V19 non MDR Acinetobacter baumannii; test: MIC assay, CAMHB with M-block alginate oligomer, no visible growth; format: cell-based; conditions: Table 7, V19 non MDR Acin. baum
Text: The study described in Example 1 was repeated with the following strains of Acinetobacter baumannii, antibiotics and M-block alginate oligomer in place of OligoG CF-5/20 as detailed in Table 7. The M-block oligomer is 100% M with a DPn of 15 to 18,

MDR Pseudomonas strains = test: MIC assay of Example 1, summary over the MDR Pseudomonas strains; format: cell-based, Pseudomonas aeruginosa
[7] = tested on: Pseudomonas aeruginosa (MDR 301, PSA, V2); test: MIC-assay, Mueller-Hinton broth with G-block alginate, 384-well, OD600; conditions: Pseudomonas aeruginosa, Table 8; V2; G-block (OligoCF-5/20) 10%
[8] = tested on: Burkholderia cepacia (LMG18941, ATCC-BAA-246); test: as above
[9] = tested on: Acinetobacter lwoffii (6056, V22); test: as above
[10] = tested on: Acinetobacter baumannii (MDR ACB, Libya, V4); test: as above
[11] = Table 9, G-block (OligoCF-5/20) 0%
[12] = Table 9, G-block (OligoCF-5/20) 2%
[13] = Table 9, G-block (OligoCF-5/20) 6%
[14] = Table 9, G-block (OligoCF-5/20) 10%

With `C[C@H]1[C@H](NC(=O)/C(=N\OC(C)(C)C(=O)O)c2csc(N)n2)C(=O)N1S(=O)(=O)O` [Aztreonam] the MIC ([1]; OligoCF-5/20 0G) was under 1 µg/mL, the MIC ([1]; OligoCF-5/20 +2% G) was under 1 µg/mL and the MIC ([1]; OligoCF-5/20 +6% G) was under 1 µg/mL. For the same compound, the MIC ([1]; OligoCF-5/20 +10% G) was under 1 µg/mL, the MIC ([2]; OligoCF-5/20 0G) was 32 µg/mL (≈ 73.5 µM) and the MIC ([2]; OligoCF-5/20 +2% G) was 16 µg/mL (≈ 36.7 µM). It also gave an MIC ([2]; OligoCF-5/20 +6% G) of under 4 µg/mL, an MIC ([2]; OligoCF-5/20 +10% G) of under 4 µg/mL and an MIC ([3]; OligoCF-5/20 0G) of 64 µg/mL (≈ 147 µM). The MIC ([3]; OligoCF-5/20 +2% G) was 16 µg/mL (≈ 36.7 µM), the MIC ([3]; OligoCF-5/20 +6% G) was 8 µg/mL (≈ 18.4 µM) and the MIC ([3]; OligoCF-5/20 +10% G) was 8 µg/mL (≈ 18.4 µM). For the same compound, the “effectiveness in conjunction with alginate oligomers” value ([4]; Example 1, KP05 506) was “more effective”, the MIC ([4]; OligoCF-5/20 0G) was 2050 µg/mL (≈ 4700 µM) and the MIC ([4]; OligoCF-5/20 +2% G) was 2050 µg/mL (≈ 4700 µM). The MIC ([4]; OligoCF-5/20 +6% G) was 512 µg/mL (≈ 1180 µM), the MIC ([4]; OligoCF-5/20 +10% G) was 256 µg/mL (≈ 588 µM) and the MIC (V11 5702 (Wales) E. coli; Escherichia coli, OligoCF-5/20 0G, read-out: MIC) was 256 µg/mL (≈ 588 µM). For the same compound, the MIC (V11 5702 (Wales) E. coli; OligoCF-5/20 +2% G) was 256 µg/mL (≈ 588 µM), the MIC (V11 5702 (Wales) E. coli; OligoCF-5/20 +6% G) was 256 µg/mL (≈ 588 µM) and the MIC (V11 5702 (Wales) E. coli; OligoCF-5/20 +10% G) was 256 µg/mL (≈ 588 µM). For the same compound, the MIC (V22 6056 Acinetobacter; Acinetobacter, OligoCF-5/20 0G, read-out: MIC) was 256 µg/mL (≈ 588 µM), the MIC (V22 6056 Acinetobacter; OligoCF-5/20 +2% G) was 128^† μg/ml and the MIC (V22 6056 Acinetobacter; OligoCF-5/20 +6% G) was 64^† μg/ml. The MIC (V22 6056 Acinetobacter; OligoCF-5/20 +10% G) was 32^† μg/ml, the MIC ([5]; Burkholderia cepacia, Table 5, V23 MDR Burk cep, OligoCF-5/20 0G, read-out: MIC) was over 512 µg/mL and the MIC ([5]; Burkholderia cepacia, Table 6, V23, Experiment 1 (18-03-10), OligoCF-5/20 0G, read-out: MIC) was over 4100 µg/mL. The MIC ([5]; Burkholderia cepacia, Table 6, V23, Experiment 2 (18-03-10), OligoCF-5/20 0G, read-out: MIC) was over 4100 µg/mL, the MIC ([5]; Burkholderia cepacia, Table 6, V23, Experiment 3 (19-03-10), OligoCF-5/20 0G, read-out: MIC) was over 4100 µg/mL and the MIC ([5]; Table 5, V23 MDR Burk cep, OligoCF-5/20 +2% G) was over 512 µg/mL. For the same compound, the MIC ([5]; Table 5, V23 MDR Burk cep, OligoCF-5/20 +6% G) was 512^† μg/ml, the MIC ([5]; Table 5, V23 MDR Burk cep, OligoCF-5/20 +10% G) was 128^† μg/ml and the MIC ([5]; Table 6, V23, Experiment 1 (18-03-10), OligoCF-5/20 +2% G) was over 4096 µg/mL. The MIC ([5]; Table 6, V23, Experiment 1 (18-03-10), OligoCF-5/20 +6% G) was 1024^† μg/ml, the MIC ([5]; Table 6, V23, Experiment 1 (18-03-10), OligoCF-5/20 +10% G) was 256^† μg/ml and the MIC ([5]; Table 6, V23, Experiment 2 (18-03-10), OligoCF-5/20 +2% G) was over 4096 µg/mL. The MIC ([5]; Table 6, V23, Experiment 2 (18-03-10), OligoCF-5/20 +6% G) was 1024^† μg/ml, the MIC ([5]; Table 6, V23, Experiment 2 (18-03-10), OligoCF-5/20 +10% G) was 512^† μg/ml and the MIC ([5]; Table 6, V23, Experiment 3 (19-03-10), OligoCF-5/20 +2% G) was over 4096 µg/mL. For the same compound, the MIC ([5]; Table 6, V23, Experiment 3 (19-03-10), OligoCF-5/20 +6% G) was 1024^† μg/ml, the MIC ([5]; Table 6, V23, Experiment 3 (19-03-10), OligoCF-5/20 +10% G) was 128^† μg/ml and the MIC ([6]; M-block oligomer 0M) was 64 µg/mL (≈ 147 µM). For the same compound, the MIC ([6]; M-block oligomer +2% M) was 32 µg/mL (≈ 73.5 µM), the MIC ([6]; M-block oligomer +6% M) was 8 µg/mL (≈ 18.4 µM) and the MIC ([6]; M-block oligomer +10% M) was 8 µg/mL (≈ 18.4 µM). The “effectiveness when used in combination with the alginate oligomers” value (MDR Pseudomonas strains) was “more effective”, the MIC [7] was 0.0625 µg/mL (≈ 0.144 µM) and the MIC ([8]; ATCCBAA246|LMG18941, Table 8, G-block (OligoCF-5/20) 0%) was over 16 µg/mL. For the same compound, the MIC ([8]; ATCCBAA246|LMG18941, Table 8, G-block (OligoCF-5/20) 2%) was over 16 µg/mL, the MIC ([8]; ATCCBAA246|LMG18941, Table 8, G-block (OligoCF-5/20) 6%) was over 16 µg/mL and the MIC ([8]; ATCCBAA246|LMG18941, Table 8, G-block (OligoCF-5/20) 10%) was over 16 µg/mL. The MIC [9, 11] was 64 µg/mL (≈ 147 µM), the MIC [9, 12] was 32 µg/mL (≈ 73.5 µM) and the MIC [9, 13] was 16 µg/mL (≈ 36.7 µM). For the same compound, the MIC [9, 14] was 4 µg/mL (≈ 9.19 µM), the MIC [10, 11] was 4 µg/mL (≈ 9.19 µM) and the MIC [10, 12] was 4 µg/mL (≈ 9.19 µM). The MIC [10, 13] was 1 µg/mL (≈ 2.3 µM) and the MIC [10, 14] was 0.5 µg/mL (≈ 1.15 µM).
